# From article PMC9421654, “Discovery of Substituted Di(pyridin-2-yl)-1,2,4-thiadiazol-5-amines as Novel Macrofilaricidal Compounds for the Treatment of Human Filarial Infections” (Journal of Medicinal Chemistry, 2022)
# pEC50, pIC50: −log10 of the molar value. Several values for one entry are separate records, joined by “and”; a condition that tells them apart may be missing. Identical values can stand only once. Like-named read-outs stand apart in the source and are kept apart here. Marks after values point to notes of the source that are not given here.
# Tests used:
# [1] = Liver microsome metabolic stability assay, mouse; format: in vitro ADME; details: 3 μM, 30 min; for Rat Microsomes: Tables 2 and 3, footnote: tested in the mouse liver microsome assay
# Experimental: (§1) Liver Microsome Metabolic Stability Assay: Incubations were performed at 37 °C in a Dubnoff Shaking water bath using 2 mL 96-well incubation plates. Liver microsome protein concentration was 0.3 mg/mL the final concentration of NADPH was 1 mM. Substrate concentrations are 3µM, incubation time is 30 minutes, and all tests are done in triplicate. The incubation was conducted in 200 mM Phosphate buffer containing 2 mM magnesium chloride, pH=7.4 and the total incubation volume was 0.5 mL. Samples were analyzed via LC-MS/MS and reported as percentage remaining after 30minute incubation, which can then be converted to half-life and intrinsic clearance. […]
# [2] = system: O. gutturosa adult male worms; experiment: O. gutturosa adult worm ex vivo assay, MTT/formazan viability; format: cell-based, Onchocerca gutturosa; details: Onchocerca gutturosa, supplement; SD in brackets in the PDF table; read-out: O. gutturosa EC50 (uM) MTT viability inhibition
# Method in brief: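 Adult male worms from naturally infected Gambian cattle were kept individually in MEM with 10% newborn calf serum at 37 °C, 5% CO2; four worms per concentration. Motility was scored 0-10 every 24 h to 120 h as a percentage of maximum, with ≥50% reduction versus untreated counted active. Afterwards, MTT (0.5 mg/mL, 30 min) formazan was read at 490 nm.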
# [3] = Liver microsome metabolic stability assay, human; format: in vitro ADME; details: 3 μM, 30 min
# Experimental: as §1
# [4] = system: O. gutturosa adult male worms; experiment: O. gutturosa adult worm ex vivo assay, motility; format: cell-based, Onchocerca gutturosa; details: Onchocerca gutturosa; for pEC50: read-out: O. gutturosa EC50, adult worm motility, bound stated
# Method in brief: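 Adult male O. gutturosa from naturally infected cattle were cultured in supplemented MEM at 37 °C, 5% CO2, with four worms per concentration in serial 1-in-4 dilutions. Motility (0–10 scale) was scored every 24 h to 120 h. EC50 (geomean, n=2) for motility reduction came from 4PL fits, and viability was checked by MTT at 120 h.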
# [5] = Kinetic solubility measurement; format: physicochemical
# Method in brief: (§2)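 Human and rat liver microsomes (0.3 mg/mL) with 1 mM NADPH and 3µM substrate, 30 minutes at 37 °C in pH 7.4 phosphate/MgCl2, triplicate; LC-MS/MS percentage remaining. LogD: octanol/aqueous buffer (pH 7.4, 2.2, 6.8, 5), 24 h shaking at room temperature. Kinetic solubility: 200 µM, 2% DMSO, 24 h, filtered.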
# [6] = LogD measurement (octanol-water); format: physicochemical
# Method in brief: as §2
# [7] = Liver S9 metabolic stability assay, human; format: in vitro ADME; details: 3 μM, 60 min
# Method in brief: (§3)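 Rat and human liver S9 (0.75 and 1.2 mg/ml) with 1 mM NADPH, 0.5 mM UDPGA, 2.5 mM GSH, 0.05 mg/ml PAPS, 3µM substrate, 60 min at 37 °C in Tris/MgCl2 pH 7.4. Mouse microsomes 0.3 mg/mL, 1 mM NADPH, 3µM, 30 min, phosphate pH 7.4. LC-MS/MS, % remaining, triplicate.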
# [8] = Liver S9 metabolic stability assay, rat; format: in vitro ADME; details: 3 μM, 60 min
# Method in brief: as §3
# O. volvulus L5 larvae [9] = experiment: O. volvulus L5 ex vivo assay, MTT viability; format: cell-based, Onchocerca volvulus; details: Day 21, 1 uM
# Experimental: This culturing medium was then added in transwell 24-well plates containing human umbilical vein endothelial cell (HUVEC) monolayers, containing the L4 larvae. A week prior to conducting an assay, the cultured O. volvulus larvae (L5) were transferred into a Petri dish containing fresh medium. […] After the transfer of O. volvulus L5 to the plates, the test compounds were dissolved in DMSO, added to each well, and incubated at 37 °C in a 5% CO2. The media containing freshly prepared compounds were partially replaced every 2–3 days for 14 days. After 14 days, the media were completely replaced. The untreated control contains the media described above with a final concentration of 0.05% DMSO. […] The motility was measured visually by two operators. […] Following washout and incubation during 1 h in PBS under 5% CO2, worms were observed under an inverted microscope. Worms were considered dead if no staining or less than 50% within the worm was observed. Otherwise, if worms stained blue or more than 50% stained, then they are considered alive. All test treatments were performed in duplicates. Significance was determined using a t test.
# O. volvulus L5 larvae [10] = experiment: O. volvulus L5 ex vivo assay, motility; format: cell-based; details: Onchocerca volvulus, 504 h, read-out: O. volvulus L5 % inhibition of motility
# Experimental: O. volvulus larvae (L4) were prepared using cryopreserved O. volvulus L3 cultured in a medium containing 1:1 NCTC-109 and IMDM (Iscove’s modified Dulbecco’s medium) supplemented with Glutamax (1×) and 2× Antibiotic-Antimycotic (Life Technologies). This culturing medium was then added in transwell 24-well plates containing human umbilical vein endothelial cell (HUVEC) monolayers, containing the L4 larvae. A week prior to conducting an assay, the cultured O. volvulus larvae (L5) were transferred into a Petri dish containing fresh medium. Aliquots of 8–10 worms were retrieved from the Petri dish and placed inside new transwells over newly seeded HUVEC monolayers in the medium described above. After the transfer of O. volvulus L5 to the plates, the test compounds were dissolved in DMSO, added to each well, and incubated at 37 °C in a 5% CO2. The media containing freshly prepared compounds were partially replaced every 2–3 days for 14 days. After 14 days, the media were completely replaced. The untreated control contains the media described above with a final concentration of 0.05% DMSO. The motility was measured every 2–3 days with the following scale: 100% motility, constant coiling movement; 75% motility, slower coiling; 50% motility, slow and intermittent movement; 25% motility, very slow movement or twitching; and 0% motility, no movement. The motility was measured visually by two operators. On day 28, the viability of O. volvulus L5 was measured by MTT. Following washout and incubation during 1 h in PBS under 5% CO2, worms were observed under an inverted microscope. Worms were considered dead if no staining or less than 50% within the worm was observed. Otherwise, if worms stained blue or more than 50% stained, then they are considered alive. All test treatments were performed in duplicates. Significance was determined using a t test.
# THLE-2 cells = experiment: THLE-2 cytotoxicity assay (ATP); details: Homo sapiens, THLE-2, read-out: THLE IC50
# Experimental: In vitro cytotoxicity of select compounds was tested in a “normal” proliferating transformed human liver epithelial (THLE-2) cell line.[35] Compounds were incubated in THLE-2 cells for 24 and 72 h, and adenosine triphosphate (ATP) levels were used as an indicator of cell viability.
# THLE-2 Cytotoxicity Assay: THLE-2 cells (ATCC, catalog #CRL-2706) were plated in LHC-8 Media (Invitrogen, catalog #12679015) supplemented with fetal bovine serum (GE, catalog #SH30088.03), 70 ng/mL phosphoethanolamine (Sigma, catalog #P0503), 5 ng/mL EGF (Sigma, catalog #E9644), 1X penicillin/streptomycin (Gibco, catalog #15140148), and 1X glutamine (Invitrogen, catalog #25030024) in 384-well clear-bottom, black walled plates at a density of 3750 cells/well (15μL/well). After plating, cells were incubated overnight at 37°C in an incubator with 5% CO2 and 90% humidity. Compounds were first serially diluted in dimethyl sulfoxide then diluted in LHC-8 media growth media to 2X concentration. Cells were dosed with 15μL of each dose for final concentrations between 0.01 – 300 μM. Cells were incubated with compounds for 24 or 72 hours. Cytotoxicity was determined with Cell Titer Glo Luminescent ATP Assay (Promega, catalog #G7573) according to the manufacturer’s instructions. Tamoxifen (Sigma, catalog #BC9353476) was used as a positive control. levels at each dose were normalized to that of cells dosed with dimethyl sulfoxide vehicle alone and IC50 values were calculated from non-linear regression fits of dose-response curves plotted
# P-gp (MDR1) = target: T1, P-gp (MDR1) (Homo sapiens, UniProt P08183); experiment: MDCK/MDR1 permeability and efflux; format: in vitro ADME; details: dog
# T1 construct: expressed in transfected cells; host or cells: MDCK (Madin Darby canine kidney) cells
# T1 sequence (P08183 whole entry): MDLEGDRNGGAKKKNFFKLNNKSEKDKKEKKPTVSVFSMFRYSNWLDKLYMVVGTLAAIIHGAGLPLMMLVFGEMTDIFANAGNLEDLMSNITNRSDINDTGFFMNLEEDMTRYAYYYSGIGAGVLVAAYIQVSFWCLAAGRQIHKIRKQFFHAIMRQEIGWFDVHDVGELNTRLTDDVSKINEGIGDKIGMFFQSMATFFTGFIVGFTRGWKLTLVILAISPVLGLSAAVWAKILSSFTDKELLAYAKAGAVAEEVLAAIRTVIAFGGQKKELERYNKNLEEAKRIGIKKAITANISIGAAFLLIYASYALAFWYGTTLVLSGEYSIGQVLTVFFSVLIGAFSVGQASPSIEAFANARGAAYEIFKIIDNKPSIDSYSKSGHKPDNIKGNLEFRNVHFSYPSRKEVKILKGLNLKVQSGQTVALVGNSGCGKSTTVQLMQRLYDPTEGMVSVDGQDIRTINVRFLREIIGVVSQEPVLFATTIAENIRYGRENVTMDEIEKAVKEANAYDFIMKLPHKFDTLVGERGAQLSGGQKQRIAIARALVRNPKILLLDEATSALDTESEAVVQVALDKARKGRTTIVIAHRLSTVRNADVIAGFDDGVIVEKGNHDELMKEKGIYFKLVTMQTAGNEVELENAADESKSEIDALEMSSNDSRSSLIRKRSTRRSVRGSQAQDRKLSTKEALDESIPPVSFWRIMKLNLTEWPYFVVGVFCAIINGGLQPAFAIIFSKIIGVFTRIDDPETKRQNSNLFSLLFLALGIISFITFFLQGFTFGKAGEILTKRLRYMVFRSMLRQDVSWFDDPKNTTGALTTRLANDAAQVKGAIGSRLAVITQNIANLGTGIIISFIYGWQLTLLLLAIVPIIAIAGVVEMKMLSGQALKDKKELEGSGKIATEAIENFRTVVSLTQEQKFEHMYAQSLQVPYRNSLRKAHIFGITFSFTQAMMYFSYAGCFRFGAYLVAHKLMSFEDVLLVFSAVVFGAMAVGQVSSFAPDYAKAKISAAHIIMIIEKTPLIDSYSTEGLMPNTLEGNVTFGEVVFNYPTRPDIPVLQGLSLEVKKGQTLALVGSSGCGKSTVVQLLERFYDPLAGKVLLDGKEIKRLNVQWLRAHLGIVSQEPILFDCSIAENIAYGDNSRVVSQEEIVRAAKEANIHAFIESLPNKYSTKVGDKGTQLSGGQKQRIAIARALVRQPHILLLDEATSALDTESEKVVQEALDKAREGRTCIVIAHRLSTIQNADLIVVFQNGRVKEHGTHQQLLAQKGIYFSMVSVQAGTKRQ
# Description: Our approach was to target compounds with efflux ratio (ER) >2.5 in the MDCK cell line transfected with MDR1 (multidrug resistance-1 transfected Madin Darby canine kidney cell line). […] Our goal was to impart structural elements designed to impart Pgp recognition.
# [11] = target: T2, hERG potassium channels (KCNH2, expressed in HEK293 cells) (Homo sapiens, UniProt Q12809); experiment: hERG inhibition; format: cell-based; details: supplement
# T2 construct: expressed in transfected cells
# T2 sequence (Q12809 whole entry): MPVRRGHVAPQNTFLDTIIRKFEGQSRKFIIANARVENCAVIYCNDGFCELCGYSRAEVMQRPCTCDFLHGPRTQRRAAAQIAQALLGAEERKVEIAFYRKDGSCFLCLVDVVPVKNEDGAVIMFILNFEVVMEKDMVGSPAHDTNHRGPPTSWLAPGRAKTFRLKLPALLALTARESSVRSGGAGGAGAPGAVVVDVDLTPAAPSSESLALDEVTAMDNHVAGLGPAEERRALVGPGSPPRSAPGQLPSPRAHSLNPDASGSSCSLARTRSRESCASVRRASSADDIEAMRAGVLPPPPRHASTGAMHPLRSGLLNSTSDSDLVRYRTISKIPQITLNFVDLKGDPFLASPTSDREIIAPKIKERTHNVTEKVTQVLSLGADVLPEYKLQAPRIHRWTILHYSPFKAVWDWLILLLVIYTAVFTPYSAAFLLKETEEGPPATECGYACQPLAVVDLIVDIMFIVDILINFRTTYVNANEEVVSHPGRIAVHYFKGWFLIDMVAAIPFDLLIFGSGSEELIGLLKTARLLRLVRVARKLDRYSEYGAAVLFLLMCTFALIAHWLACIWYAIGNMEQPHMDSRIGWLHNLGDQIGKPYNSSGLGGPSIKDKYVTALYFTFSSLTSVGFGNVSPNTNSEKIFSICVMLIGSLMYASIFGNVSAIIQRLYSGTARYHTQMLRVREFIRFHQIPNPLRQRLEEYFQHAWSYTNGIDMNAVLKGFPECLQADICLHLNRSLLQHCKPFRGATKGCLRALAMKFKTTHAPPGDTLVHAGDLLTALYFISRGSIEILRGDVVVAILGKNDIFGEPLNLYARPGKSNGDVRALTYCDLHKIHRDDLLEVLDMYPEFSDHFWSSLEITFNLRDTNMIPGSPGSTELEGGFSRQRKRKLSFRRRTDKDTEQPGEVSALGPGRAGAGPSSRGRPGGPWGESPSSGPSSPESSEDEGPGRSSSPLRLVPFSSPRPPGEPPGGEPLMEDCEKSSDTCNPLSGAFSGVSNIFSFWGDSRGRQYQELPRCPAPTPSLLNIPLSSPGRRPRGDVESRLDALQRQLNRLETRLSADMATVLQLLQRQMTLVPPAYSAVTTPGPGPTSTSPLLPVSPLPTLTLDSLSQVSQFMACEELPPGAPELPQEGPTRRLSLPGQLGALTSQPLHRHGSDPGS
# [12] = read-out: O. gutturosa EC50 μM (SD), ex vivo adult worm motility reduction, SD in brackets
# [13] = read-out: O. gutturosa EC50 (uM) motility inhibition, supplement, SD in brackets in the PDF table
# [14] = supplement, read-out: measured logD
Structure (SMILES),"Rat Microsomes, (m) ([1]; Table 1, tested in the mouse not rat)",EC50 [2],Human Microsomes [3],"EC50 [4, 12]","EC50 [4, 13]",solubility kinetic at 24 h ([5]; 10 mM DMSO stock solutions),"logD at 24 h [6, 14]",Rat Microsomes [1],"logD at 24 h ([6]; pH 7.4, read-out: logD)",Human S9 metabolic stability [7],Rat S9 metabolic stability [8],O. volvulus L5 % inhibition of viability (O. volvulus L5 larvae [9]),pEC50 [4],inhibition at 1 µM (O. volvulus L5 larvae [10]),pIC50 (THLE-2 cells),Papp A→B (P-gp (MDR1)),solubility kinetic at 24 h ([5]; supplement),pIC50 [11]
"Cc1cccnc1Nc1n[nH]c(-c2ccc(OC3CCOCC3)cn2)n1 [Compound 8, 3-Methyl-N-{5-[5-(oxan-4-yloxy)pyridin-2-yl]-4H-1,2,4-triazol-3-yl}pyridin-2-amine]",70 (m)^e % remaining,0.004 µM,92 % remaining,0.01 µM,0.009 µM,202 µM,2,,,,,,,,,,,
Cc1cccnc1Nc1nc(-c2cc(C(=O)N(C)C)c(OC(C)C)cn2)ns1 [Compound 17],,0.5 µM,91 % remaining,0.63 µM,0.626 µM,154 µM,2.3,90 % remaining,2.3,,,,,,,,,
"CC(C)c1cccnc1Nc1nc(-c2ccc(OC3CC3)cn2)ns1 [Compound 23, 3-(5-Cyclopropoxypyridin-2-yl)-N-(3-isopropylpyridin-2-yl)-1,2,4-thiadiazol-5-amine]",,0.012 µM,,0.04 µM,0.038 µM,,2.5,,2.5,39 % remaining,78 % remaining,100%,> 7.00,100%,,,,
"CC(C)Oc1cnc(-c2nsc(Nc3ncccc3C(C)C)n2)cc1C(F)(F)F [Compound 24, 3-(5-Isopropoxy-4-(trifluoromethyl)pyridin-2-yl)-N-(3-isopropylpyridin-2-yl)-1,2,4-thiadiazol-5-amine]",,0.75 µM,97 % remaining,0.05 µM,0.051 µM,1.05 µM,2.9,96 % remaining,2.9,,,,> 7.00,,,,,
CC(=O)N(C)c1cccnc1Nc1nc(-c2cc(C(F)(F)F)c(OC(C)C)cn2)ns1 [Compound 48],,1.05 µM,,3.71 µM,,10.8 µM,3.5,,3.5,,,,,,5.08,6.9 ×10⁻⁶ cm/s,10.8 µM,4.59
"CC(C)Oc1cnc(-c2nsc(Nc3ncccc3N(C)C(=O)C3CC3)n2)cc1C(F)(F)F [Compound 49, N-(2-((3-(5-Isopropoxy-4-(trifluoromethyl)pyridin-2-yl)-1,2,4-thiadiazol-5-yl)amino)pyridine-3-yl)-N-methylcyclopropanecarboxamide]",,3.7 µM,,1.11 µM,,2.67 µM,3.63,,3.63,,,,,,4.74,8.8 ×10⁻⁶ cm/s,,< 4.52
"CC(=O)N(C)c1cc(C(F)(F)F)cnc1Nc1nc(-c2ccc(OC(C)C)cn2)ns1 [Compound 54, N-(2-((3-(5-Isopropoxypyridin-2-yl)-1,2,4-thiadiazol-5-yl)amino)-5-(trifluoromethyl)pyridin-3-yl)-N-methylacetamide]",,0.15 µM,,0.14 µM,0.139 µM,13.1 µM,3.13,,3.13,,,,,,5.21,9.9 ×10⁻⁶ cm/s,,< 4.52
"CC(C)Oc1cccnc1-c1nsc(Nc2ncc(C(F)(F)F)cc2C(=O)N(C)C)n1 [Compound 58, 2-[[3-(3-Isopropoxy-2-pyridyl)-1,2,4-thiadiazol-5-yl]amino]-N,N-dimethyl-5-(trifluoromethyl)pyridine-3-carboxamide]",,1.5 µM,,0.62 µM,0.621 µM,130 µM,2.15,,2.15,,,,,,,11.2 ×10⁻⁶ cm/s,,
"CC(C)Oc1ccc(-c2nsc(Nc3ncccc3C(=O)N(C)C)n2)nc1 [Compound 61, 2-((3-(5-Isopropoxypyridin-2-yl)-1,2,4-thiadiazol-5-yl)amino)-N,N-dimethylnicotinamide]",,2.1 µM,,0.36 µM,0.357 µM,101 µM and 100.70 µM,2.1,,2.1,,,,,,4.49,4.9 ×10⁻⁶ cm/s,,< 4.52
